In brackets after ≈: the same amount, converted by molar mass.

The conditions of this data set: buffer; pH 7.4; 200.0 µM.
Turning to `O=C1NC2(CCCCC2)C(=O)N1c1ccc(Cl)cc1`, the solubility (kinetic) is 3.8 µg/mL (≈ 13.6 µM). `O=C(Nc1ccccc1)c1cccc(C(=O)Nc2ccccc2)n1` yielded a kinetic solubility of 0.3 µg/mL (≈ 0.945 µM).

In turn, `CCOc1ccccc1/C=C/c1cc(C(=O)O)c2ccccc2n1` had a solubility (kinetic) of 45.8 µg/mL (≈ 143 µM). In turn, `COc1cccc(/C(N)=N/OC(=O)Cc2ccccc2[N+](=O)[O-])c1` gave a kinetic solubility of 31.7 µg/mL (≈ 96.3 µM). `Cc1ccc(NC(=O)CCCN2C(=O)NC(C)(C)C2=O)cc1`: the solubility (kinetic) came to 38.7 µg/mL (≈ 128 µM).

Take `CC(C)N1CC(C(=O)Nc2cccc([N+](=O)[O-])c2)CC1=O` (centres undefined): the kinetic solubility was over 43.7 µg/mL.

`CC(=O)c1ccc(NC(=O)c2cc(C)no2)cc1`: the solubility (kinetic) was 13.3 µg/mL (≈ 54.5 µM). `CC#CC(=O)NC1CCCN(C2Cc3ccccc3C2)C1` (centres undefined) yielded a kinetic solubility of over 42.4 µg/mL.

As to `COc1ccc(CCNC(=O)CCC(=O)NC2CCCC(C)C2C)cc1OC` (centres undefined), the solubility (kinetic) came to 39.3 µg/mL (≈ 101 µM).

In turn, `Cc1nc2ccc(Nc3ccncc3)cc2s1` showed a solubility (kinetic) of 34.2 µg/mL (≈ 142 µM). Then `CC(=O)c1ccccc1NC(=O)COC(=O)/C=C/c1ccc(C)o1`, with under 0.7 µg/mL. The compound `COc1ccc(C(CNC(=O)c2cc(S(=O)(=O)N3CCN(c4ccccc4)CC3)ccc2Cl)N(C)C)cc1` (centres undefined) returned a solubility (kinetic) of 49.4 µg/mL (≈ 88.7 µM). As for `O=C(Nc1ccccc1F)C1COc2ccccc2O1` (centres undefined), the kinetic solubility was 25.6 µg/mL (≈ 93.7 µM). `Cn1c(CNc2ccc(O)cc2)nc2ccccc21` displayed a kinetic solubility of 35 µg/mL (≈ 138 µM).

`COc1cccc(NC(=O)COC(=O)C2=NN(c3ccccc3)C(=O)CC2)c1` showed a kinetic solubility of over 57.2 µg/mL. In the case of `CC(C)N(C)S(=O)(=O)c1ccc(Cl)c(C(=O)O)c1`, the kinetic solubility was over 43.8 µg/mL. As for `COc1ccc(CC(=O)Nc2ccccc2N2CCCC2)cc1OC`, the solubility (kinetic) was over 51.1 µg/mL.

In turn, `CCOC(=O)CNC(=O)Cc1ccc(OC)cc1` showed a kinetic solubility of over 37.7 µg/mL. The figure for `COc1ccc(NC(=O)CNC(=O)C2CCCCC2)cc1` is 39.7 µg/mL (≈ 137 µM); for `O=C(COC(=O)Cc1c[nH]c2ccccc12)Nc1ccccc1C(F)(F)F` it is over 56.5 µg/mL; for `N=C1SC(CC(=O)Nc2ccc([N+](=O)[O-])cc2)C(=O)N1c1ccccc1` (centres undefined) it is 1 µg/mL (≈ 2.7 µM). `CCC(CC)C(=O)N1CCN(c2ccccc2)CC1` showed a solubility (kinetic) of over 39.1 µg/mL.

As for `Cc1c(C(=O)O)sc2[nH]c(=O)n(Cc3ccccc3)c(=O)c12`, the solubility (kinetic) is 45.7 µg/mL (≈ 144 µM). In turn, `COc1ccc(N2CCOCC2)c(NC(=O)c2cccc3ccccc23)c1` displayed a solubility (kinetic) of 6 µg/mL (≈ 16.6 µM).

On to `CCN(CC(=O)Nc1c(F)cccc1F)C(=O)C1CC1C` (centres undefined), for which the solubility (kinetic) is over 44.4 µg/mL.

In turn, `CN(c1ccc(F)cc1)S(=O)(=O)c1ccc(Cl)c(C(=O)OCC(=O)NC2CC2)c1` showed a kinetic solubility of 11.7 µg/mL (≈ 26.5 µM). The compound `CSc1ccc(Cl)c(C(=O)Nc2ccc(Cl)cn2)c1` gave a solubility (kinetic) of 0.5 µg/mL (≈ 1.6 µM). With `CC(=O)Nc1ccc(NC(=O)C2c3ccccc3Oc3ccccc32)cc1`, the solubility (kinetic) was 1.1 µg/mL (≈ 3.07 µM). Compound `Cc1ccc(-c2nc(C=Nc3ccccc3)c(O)o2)cc1` gave a kinetic solubility of 4.7 µg/mL (≈ 16.9 µM). Regarding `NC(=NCCc1ccccc1)NS(=O)(=O)c1ccccc1F`, the solubility (kinetic) was over 48.2 µg/mL. With `CCc1sc(C(=O)N2CCCN(C)CC2)cc1Br`, the kinetic solubility worked out at 46.5 µg/mL (≈ 140 µM). The figure for `NC(=O)c1ccc(NC(=S)NCc2ccco2)cc1` is over 41.3 µg/mL. `CSc1nc2c(c(=O)[nH]c(=O)n2C)n1CCCc1ccccc1` came in with a kinetic solubility of 24 µg/mL (≈ 72.6 µM). The figure for `CCOc1ccc2c(c1)ncn2Cc1ccccc1` is 32.4 µg/mL (≈ 128 µM); for `CC(=O)Nc1ccc(C(=O)COC(=O)c2cccs2)c(F)c1` it is 9.6 µg/mL (≈ 29.9 µM). `Cc1cccc(NC(=O)c2cc(Cl)nc3ccccc23)n1` displayed a kinetic solubility of 19.9 µg/mL (≈ 66.8 µM). As to `CC1(C)CC(NC(=O)c2ccccc2)CC(C)(C)N1`, the solubility (kinetic) was over 39.1 µg/mL. In turn, `COc1ccccc1NC(=O)c1ccc(-n2ccnc2)c([N+](=O)[O-])c1` returned a solubility (kinetic) of over 50.7 µg/mL. In turn, `Cc1ccc2[nH]c(CNC(=O)C3CCCCC3)cc2c1` came in with a kinetic solubility of 19.6 µg/mL (≈ 72.5 µM). Compound `CC1(C)C(C=C(Cl)Cl)C1C(=O)NC(O)C(=O)c1ccccc1` (centres undefined) yielded a solubility (kinetic) of 10.8 µg/mL (≈ 31.6 µM).

The compound `Cl.O=C(CN1CCCC1)NCc1ccccc1` yielded a kinetic solubility of 32.6 µg/mL. Regarding `O=C(/C=C/c1ccccc1)OCCN1C(=O)c2ccccc2C1=O`, the solubility (kinetic) was under 0.7 µg/mL. The compound `Fc1ccc2nc(N3CCOCC3)sc2c1` showed a kinetic solubility of over 35.7 µg/mL. For `CN(Cc1nc(Cc2cccc(F)c2)no1)CC1CCOCC1`, the solubility (kinetic) came out at 41.1 µg/mL (≈ 129 µM). Turning to `Cc1cccc(N2CCN(C(=O)[C@H](C)N3C(=O)C4CC=CCC4C3=O)CC2)c1C` (some centres undefined), the kinetic solubility is over 59.3 µg/mL. With `COc1ccc(CCNC(=O)COC(=O)c2cc(=O)[nH]c3ccccc23)cc1`, the kinetic solubility amounted to 8.9 µg/mL (≈ 23.4 µM). In the case of `COc1ccc(CCNC(=O)Nc2cccs2)c(OC)c1`, the solubility (kinetic) was determined as 15.6 µg/mL (≈ 50.9 µM). Turning to `CNc1snc(C)c1C(=O)OC(C)C(=O)Nc1ccccc1` (centres undefined), the kinetic solubility came to 34.5 µg/mL (≈ 108 µM). The compound `O=C(Nc1ccc(S(=O)(=O)N2CCCCC2)cc1)C1CCCCC1` registered a solubility (kinetic) of 13.5 µg/mL (≈ 38.5 µM). The compound `O=C(O)c1ccc(N=C2NC(=O)C(CO)(CO)S2)cc1` had a kinetic solubility of over 44.4 µg/mL.

With `CCCc1cc(C(=O)Nc2ccc(C#N)cc2)no1`, the kinetic solubility turned out to be 2.4 µg/mL (≈ 9.4 µM). Then `O=C(CSc1cccc[n+]1[O-])Nc1ccc(Br)cc1Br`, with 6.7 µg/mL (≈ 16 µM); and `COc1ccc(NC(=O)CC2Oc3ccccc3NC2=O)c(OC)c1` (centres undefined), with 4 µg/mL (≈ 11.7 µM); and `COCCNC(=O)C1Cc2c(ccc3ccccc23)O1` (centres undefined), with over 40.7 µg/mL.

As to `CC(C)Oc1ccc(Cc2cnc(=S)[nH]c2N)cc1`, the solubility (kinetic) came to 15.4 µg/mL (≈ 55.9 µM). For the compound `Cc1ccc(NC(=O)/C=C/C(=O)O)c(NC(=O)c2ccccc2)c1`, the solubility (kinetic) is over 48.7 µg/mL.

`CCCCNC(=S)Nc1ccc(C(F)(F)F)cc1` yielded a kinetic solubility of 15.7 µg/mL (≈ 56.8 µM).

`COc1ccc(C(=O)NCC(=O)OCC(=O)N2CC(C)OC(C)C2)cc1OC` (centres undefined) registered a kinetic solubility of over 59.2 µg/mL. `Cc1ccc(NC(=O)C(=O)c2ccc(C)cc2)cc1` came in with a solubility (kinetic) of 0.7 µg/mL (≈ 2.76 µM). Then `O=C(Cc1ccc(Cl)cc1Cl)Nc1ccncc1Cl`, with 12.4 µg/mL (≈ 39.3 µM).

Consider `CC(=O)Nc1cc[n+](C(C)C(=O)c2ccccc2)cc1.[Cl-]` (centres undefined), for which the kinetic solubility is 34 µg/mL. `Cc1ccc(C(=O)NC(C(=O)Nc2ccccc2)c2ccccc2)cc1` (centres undefined): the kinetic solubility worked out at 1 µg/mL (≈ 2.9 µM). `CN1C(=O)c2cccc3c(S(=O)(=O)Nc4ccccc4F)ccc1c23` registered a solubility (kinetic) of 9.6 µg/mL (≈ 26.9 µM). As for `O=C(O)/C=C/C(=O)Nc1ccc(OC(F)F)cc1`, the solubility (kinetic) was over 38.6 µg/mL. The compound `CC(=O)c1ccc(OCC(=O)Nc2ccc3nc(C)sc3c2)cc1` gave a kinetic solubility of 1.4 µg/mL (≈ 4.11 µM). `CCC1CC(C(=O)Nc2ccccc2)C(=O)O1` (centres undefined) showed a kinetic solubility of over 35 µg/mL.

Compound `COc1cccc(C(O)c2nc3ccccc3n2C)c1` (centres undefined) had a kinetic solubility of 28.9 µg/mL (≈ 108 µM). Take `O=C(COC(=O)COc1ccc(Cl)cc1)NCCCc1ccccc1`: the kinetic solubility stood at 26.1 µg/mL (≈ 72.1 µM). For the compound `CC(C)CNC(=O)c1cccc2c1-c1ccccc1C2=O`, the solubility (kinetic) worked out at 2.5 µg/mL (≈ 8.95 µM). As to `O=C(Nc1ccc(N2CCOCC2)cc1)c1cccc(S(=O)(=O)N2CCOCC2)c1`, the solubility (kinetic) was 15.1 µg/mL (≈ 35 µM). For `CCc1ccc(CN2CCSCC2)cc1`, the kinetic solubility amounted to 8.5 µg/mL (≈ 38.4 µM). The figure for `O=[N+]([O-])c1ccc(S(=O)(=O)Nc2ccccn2)cc1` is over 41.9 µg/mL; for `O=C(COC(=O)/C=C/c1cccs1)NC1CC1` it is over 37.7 µg/mL; for `CC(NCCC(c1ccccc1)c1ccccc1)c1ccccc1.Cl` (centres undefined) it is over 52.8 µg/mL.

Take `c1ccc(-c2csc(Nc3ccccn3)n2)cc1`: the solubility (kinetic) amounted to 0.3 µg/mL (≈ 1.18 µM). Compound `Cc1nn(C)c(Sc2ccccn2)c1[N+](=O)[O-]` returned a kinetic solubility of over 37.5 µg/mL. As to `Cc1cc(NC(=O)C2=C(O)c3ccccc3S(=O)(=O)N2C)no1`, the solubility (kinetic) is 33.9 µg/mL (≈ 101 µM).

`O=C(Nc1ccccc1N1CCOCC1)c1ccc2ccccc2c1` displayed a solubility (kinetic) of 0.8 µg/mL (≈ 2.41 µM). In turn, `O=c1[nH]cnc2sc3c(c12)CCCCC3` returned a solubility (kinetic) of 19.9 µg/mL (≈ 90.3 µM). For the compound `COc1cc(OC)cc(C(=O)NCC(=O)NCc2ccccn2)c1`, the solubility (kinetic) is over 49.4 µg/mL. The figure for `Cc1cc(C)cc(C(=O)N2CCN(Cc3ccc4c(c3)OCO4)CC2)c1` is over 52.9 µg/mL. `O=C(COC(=O)c1ccc(F)cc1)NC1CC1`: the solubility (kinetic) was over 35.6 µg/mL. Turning to `Cc1cc(CNC(=O)Cc2ccc(F)cc2)c2ccccc2n1`, the kinetic solubility was over 46.3 µg/mL. Then `O=C(NNC(=O)C12CC3CC(CC(C3)C1)C2)c1ccccc1F`, with over 47.5 µg/mL; and `CC(C)CC(=O)Nc1ccc2ccccc2c1`, with 6.2 µg/mL (≈ 27.3 µM). The figure for `COC(=O)c1cc(OCC(=O)Nc2ccc3c(c2)CCC3)cc(C(=O)OC)c1` is 3 µg/mL (≈ 7.82 µM); for `CC(C)CCN1CCN(Cc2cccn2-c2cccnc2)CC1CCO` (centres undefined) it is over 53.5 µg/mL; for `COc1ccc(C2CC(=O)N(c3ccccc3)C3=C2C(=O)CCC3)cc1` (centres undefined) it is 48.9 µg/mL (≈ 141 µM).

`CSc1sc(C(=O)NCC2CC2)cc1S(=O)(=O)C(C)C` returned a solubility (kinetic) of 49.3 µg/mL (≈ 148 µM). `CCSc1ccc(/C(N)=N/OC(=O)c2cccs2)cn1` yielded a solubility (kinetic) of 0.3 µg/mL (≈ 0.976 µM).

In turn, `CCCCNC(=O)Nc1nc2ccc(CC)cc2s1` showed a kinetic solubility of 0.7 µg/mL (≈ 2.52 µM).

`COc1cc(/C=C/C(=O)OCC(=O)NCc2ccc3c(c2)OCO3)cc(OC)c1OC` returned a kinetic solubility of 4.3 µg/mL (≈ 10 µM). Turning to `COc1cc(C)cc(CN2CCC(Cc3ccccc3)CC2)c1O`, the kinetic solubility was 44.5 µg/mL (≈ 137 µM). Regarding `Cc1c(CNCCc2ccccc2)c(C(=O)O)c(C)n1-c1ccccc1`, the solubility (kinetic) is over 52.3 µg/mL. `O=C(Nc1ccccc1)c1ccccc1NC(=O)c1ccccc1C(=O)O` yielded a kinetic solubility of 52.6 µg/mL (≈ 146 µM).

In turn, `COC(=O)N1CCCc2cc(C)ccc21` returned a kinetic solubility of 15.5 µg/mL (≈ 75.5 µM). Turning to `CCCCNC(=S)N1CCN(c2ccc(C(C)=O)cc2)CC1`, the solubility (kinetic) amounted to 8 µg/mL (≈ 25 µM). The compound `NC(=O)C(c1ccccc1)c1ccc(C(=O)c2ccccc2)cc1` (centres undefined) had a solubility (kinetic) of under 0.7 µg/mL. Compound `Cc1cccc2sc(NC(=O)C3CC3)nc12` showed a solubility (kinetic) of 1.4 µg/mL (≈ 6.03 µM). Then `O=C(Cc1ccccc1)Nc1ccc(NC(=O)c2cccs2)cc1`, with under 0.4 µg/mL; and `CC(=O)Nc1ccc(C(=O)OCC(=O)N(C)C2CCCCC2)cc1`, with 36 µg/mL (≈ 108 µM); and `CCNC(=S)Nn1cnc2ccccc21`, with over 33 µg/mL.

Regarding `O=C(O)c1cc(S(=O)(=O)NCCN2CCNC2=O)ccc1O`, the solubility (kinetic) was over 49.4 µg/mL. Then `CN1CCCN(C(=O)COc2ccc(Br)cc2)CC1`, with 44.7 µg/mL (≈ 137 µM).

Values taken from PubChem BioAssay AID1996.
